Reference: publication PMC6269873, “Substituted 3-Benzylcoumarins as Allosteric MEK1 Inhibitors: Design, Synthesis and Biological Evaluation as Antiviral Agents” (Molecules, 2013)
Where two headings read alike, the source gives them in different places.

Key:
[1] = system: unphosphorylated human MEK1; parameters: method as in PMID 16199156; conditions: inhibition of activation of unphosphorylated human MEK1; cited from earlier work
phosphorylated MEK1 = phosphorylated MEK1 (Homo sapiens, UniProt Q02750); experiment: MEK1 binding assay (HTRF, tracer displacement); conditions: for inhibition at 2 µM: read-out: % binding (2 µM); for inhibition at 20 µM: read-out: % binding (20 µM)
Sequence of phosphorylated MEK1 (Q02750 whole entry): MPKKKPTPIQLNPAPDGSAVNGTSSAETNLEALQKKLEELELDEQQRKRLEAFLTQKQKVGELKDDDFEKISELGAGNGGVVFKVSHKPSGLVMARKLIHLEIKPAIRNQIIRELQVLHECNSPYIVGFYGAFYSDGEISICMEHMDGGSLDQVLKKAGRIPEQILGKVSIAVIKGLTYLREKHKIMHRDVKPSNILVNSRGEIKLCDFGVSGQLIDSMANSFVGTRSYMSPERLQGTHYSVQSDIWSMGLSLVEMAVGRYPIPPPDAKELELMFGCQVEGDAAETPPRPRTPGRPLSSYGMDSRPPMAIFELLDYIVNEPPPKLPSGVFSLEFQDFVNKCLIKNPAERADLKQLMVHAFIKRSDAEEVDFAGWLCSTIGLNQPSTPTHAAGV
In short: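 5 nM GST-tagged phosphorylated MEK1, 2 nM Eu anti-GST antibody and 20 nM kinase tracer 236 incubated with compound 30 min at room temperature in the dark.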

ERK pathway = experiment: cells; type: cell-based, Human; conditions: for IC50: Homo sapiens, HEK293
Experimental: The effects of the inhibitors on the activation of ERK pathway were determined in TPA (12-O-tetradecanoylphorbol-13-acetate)-stimulated cells using the AP-1 luciferase reporter gene assay system. Activating protein-1 (AP-1) is the nuclear transcription factor which is a heterodimeric protein downstream of MAPK composed of dimers of the Fos and Jun proteins. The stable AP-1 dimers bind to DNA recognition elements (AP-1 response elements) and mediate transcriptional induction. AP-1 controls a number of cellular events including differentiation, proliferation and apoptosis. Simultaneously, the expression of AP-1 can be regulated in response to different extracellular stimuli, such as cytokines, growth factors, stress, and bacterial and viral infections. ERK pathway is the most important mediator which is closely related to these responses. Activation of ERK pathway causes induction of fos gene, and then the product heterodimerizes with the Jun protein to form the AP-1 dimers. These newly formed heterodimers can enhance the expression of c-jun through AP-1 binding sites in the c-jun promoter. TPA can increase levels of AP-1 proteins through activation of the ERK pathway.
3.4.2. AP-1 Luciferase Reporter Gene Assay
pAP1-Luc was constructed with pGL3-basic (Promega, Madison, WI. USA) and a fragment including the AP-1 response element (2× TRE) and T7 promoter. HEK 293 cells in 96-well plates were cultured at 5% CO2 at 37 °C in DMEM containing 10% FBS. When the confluence was up to 80%, cells were transinfected with pAP1-Luc using lipofectamine 2000 (Life Technologies, Carlsbad, CA. USA). At 24 h post transinfection, individual compounds with different concentrations (5, 10, 20, 30 μM) were added into cells using three wells for each concentration used. After incubation for 1 h, TPA (50 nM) was added. The cells were harvested after 4 h and luciferase activity was measured by using luciferase assay kit (Promega) with a luminometer.

EV71 [2] = experiment: microbe, parasite or virus in culture; conditions: for EC50: Enterovirus A, EV71, HEK293
Experimental: (§1) To further examine the functional effects, we selected EV71 to perform the antiviral analysis. […] CC50 is the median cytotoxic concentration measured with the MTT assay.
(§2) RD cells were cultured in DMEM and up to 70%–80% confluence in 96-well plates. Compounds were added into the culture medium for 1 h prior to virus infection using four wells for each concentration used. The compounds were added at the following concentrations: 1.25, 2.5, 5, 10, 20, 40 μM. Then cells were infected withEV71 (a clinical strain denoted as EV71-BC08, GU475127) at a multiplicity of infection (MOI) of 1. Virus controls (untreated wells of infected cells), cell controls (cells and drugs only, using the same dilution range for each compound as the test wells) were included on the plate. The cytopathic effect (CPE) were examined at every 12 h intervals post-infection by using phase-contrast microscopy. […] The cytotoxicity (CC50) was assayed by the MTT method.

EV71 [3] = experiment: microbe, parasite or virus in culture; conditions: for EC50: Enterovirus A, EV71, RD
Experimental: as §1, §2

[4] = HTRF binding to GST tagged phosphorylated MEK1, read-out: IC50

SMILES: Cc1c(Cc2ccc(F)cc2)c(=O)oc2cc(OC(=O)N(C)C)ccc12 [Compound G8935]
- IC50 [1]: 0.3 µM

SMILES: Cc1c(Cc2ccccc2)c(=O)oc2cc(OC(=O)N(C)C)c(Cl)cc12 [Compound 14, 3-Benzyl-6-chloro-4-methyl-2-oxo-2H-chromen-7-yl dimethylcarbamate]
- IC50 (phosphorylated MEK1): 0.307 µM
- inhibition at 2 µM (phosphorylated MEK1): 66.3%
- inhibition at 20 µM (phosphorylated MEK1): 80.8%
- IC50 (ERK pathway): 30.8 ± 1.4 µM
- melting point: 156 to 157 °C

SMILES: CCC(=O)Oc1ccc2c(C)c(Cc3ccc(F)cc3)c(=O)oc2c1 [Compound 38, 3-(4-Fluorobenzyl)-4-methyl-2-oxo-2H-chromen-7-yl propionate]
- IC50 (phosphorylated MEK1; [4]): 0.19 µM
- inhibition at 2 µM (phosphorylated MEK1): 75.7%
- inhibition at 20 µM (phosphorylated MEK1): 90.8%
- IC50 (ERK pathway): 38.1 ± 1.26 µM
- melting point: 115 to 116 °C

SMILES: CCCc1c(Cc2ccc(F)cc2)c(=O)oc2cc(OC(C)=O)ccc12 [Compound 33, 3-(4-Fluorobenzyl)-2-oxo-4-propyl-2H-chromen-7-yl acetate]
- IC50 (phosphorylated MEK1; [4]): 0.252 µM
- inhibition at 2 µM (phosphorylated MEK1): 61.4%
- inhibition at 20 µM (phosphorylated MEK1): 72.2%
- EC50 (EV71 [2]): 12.8 µM
- inhibition of ERK pathway activation (in words) (ERK pathway): more efficiently than U0126
- IC50 (ERK pathway): 11.6 ± 1.2 µM
- EC50 (EV71 [3]): 18.5 µM
- melting point: 150 to 151 °C

SMILES: Cc1c(Cc2ccccc2)c(=O)oc2cc(OC(=O)N(C)C)ccc12 [Compound 13, 3-Benzyl-4-methyl-2-oxo-2H-chromen-7-yl dimethylcarbamate]
- IC50 (phosphorylated MEK1): 0.223 µM
- inhibition at 2 µM (phosphorylated MEK1): 75.6%
- inhibition at 20 µM (phosphorylated MEK1): 95.2%
- TI (CC50/IC50) (EV71 [2]): 29.85
- EC50 (EV71 [2]): 3.29 µM
- inhibition of ERK pathway activation (in words) (ERK pathway): more efficiently than U0126
- IC50 (ERK pathway): 5.4 ± 1.26 µM
- TI (CC50/IC50) (EV71 [3]): 60.8
- EC50 (EV71 [3]): 2.5 µM
- melting point: 130 to 133 °C

SMILES: CCCC(=O)Oc1ccc2c(CC)c(Cc3ccccc3)c(=O)oc2c1 [Compound 43, 3-Benzyl-4-ethyl-2-oxo-2H-chromen-7-yl butyrateen-7-yl propionate]
- IC50 (phosphorylated MEK1; [4]): 0.473 µM
- inhibition at 2 µM (phosphorylated MEK1): 45%
- inhibition at 20 µM (phosphorylated MEK1): 54.7%
- IC50 (ERK pathway): 85.9 ± 1.46 µM
- melting point: 102 °C

SMILES: CCCC(=O)Oc1ccc2c(C)c(Cc3ccccc3)c(=O)oc2c1 [Compound 42, 3-Benzyl-4-methyl-2-oxo-2H-chromen-7-yl butyrate]
- IC50 (phosphorylated MEK1; [4]): 0.353 µM
- inhibition at 2 µM (phosphorylated MEK1): 53.8%
- inhibition at 20 µM (phosphorylated MEK1): 68.4%
- IC50 (ERK pathway): 88.7 ± 2.52 µM
- melting point: 139 to 140 °C

SMILES: CCc1c(Cc2ccc(F)cc2)c(=O)oc2cc(OC(=O)N(C)C)ccc12 [Compound 18, 4-Ethyl-3-(4-fluorobenzyl)-2-oxo-2H-chromen-7-yl dimethylcarbamate]
- IC50 (phosphorylated MEK1): 0.0546 µM
- binding affinity (in words) (phosphorylated MEK1): active
- inhibition at 2 µM (phosphorylated MEK1): 98.2%
- inhibition at 20 µM (phosphorylated MEK1): 99.4%
- TI (CC50/IC50) (EV71 [2]): 3.37
- EC50 (EV71 [2]): 19.4 µM
- inhibition of ERK pathway activation (in words) (ERK pathway): more efficiently than U0126
- IC50 (ERK pathway): 23.4 ± 1.11 µM
- TI (CC50/IC50) (EV71 [3]): 7.29
- EC50 (EV71 [3]): 10 µM

SMILES: CCCc1c(Cc2ccc(F)cc2)c(=O)oc2cc(OC(=O)N(C)C)ccc12 [Compound 19, 3-(4-Fluorobenzyl)-2-oxo-4-propyl-2H-chromen-7-yl dimethylcarbamate]
- IC50 (phosphorylated MEK1): 0.158 µM
- inhibition at 2 µM (phosphorylated MEK1): 66.2%
- inhibition at 20 µM (phosphorylated MEK1): 87.6%
- TI (CC50/IC50) (EV71 [2]): 65.24
- EC50 (EV71 [2]): 4.85 µM
- inhibition of ERK pathway activation (in words) (ERK pathway): more efficiently than U0126
- IC50 (ERK pathway): 4.31 ± 2.14 µM
- TI (CC50/IC50) (EV71 [3]): 190
- EC50 (EV71 [3]): 3.98 µM
- melting point: 82 to 84 °C

SMILES: CCCc1c(Cc2ccc(F)cc2)c(=O)oc2cc(OC(=O)CC)ccc12 [Compound 40, 3-(4-Fluorobenzyl)-2-oxo-4-propyl-2H-chromen-7-yl propionate]
- IC50 (phosphorylated MEK1; [4]): 0.176 µM
- inhibition at 2 µM (phosphorylated MEK1): 72.2%
- inhibition at 20 µM (phosphorylated MEK1): 78.5%
- IC50 (ERK pathway): 87.5 ± 1.98 µM
- melting point: 94 to 95 °C

SMILES: CC(=O)Oc1ccc2c(C)c(Cc3ccccc3)c(=O)oc2c1 [Compound 28, 3-Benzyl-4-methyl-2-oxo-2H-chromen-7-yl acetate]
- IC50 (phosphorylated MEK1; [4]): 0.52 µM
- inhibition at 2 µM (phosphorylated MEK1): 72.2%
- inhibition at 20 µM (phosphorylated MEK1): 96.5%
- IC50 (ERK pathway): 37.6 ± 1.1 µM
- melting point: 165 to 166 °C

SMILES: CCC(=O)Oc1ccc2c(CC)c(Cc3ccccc3)c(=O)oc2c1 [Compound 36, 3-Benzyl-4-ethyl-2-oxo-2H-chromen-7-yl propionate]
- IC50 (phosphorylated MEK1; [4]): 0.391 µM
- inhibition at 2 µM (phosphorylated MEK1): 81%
- inhibition at 20 µM (phosphorylated MEK1): 87%
- IC50 (ERK pathway): 49.8 ± 1.24 µM
- melting point: 124 °C

SMILES: CCc1c(Cc2ccccc2)c(=O)oc2cc(OC(C)=O)ccc12 [Compound 29, 3-Benzyl-4-ethyl-2-oxo-2H-chromen-7-yl acetate]
- IC50 (phosphorylated MEK1; [4]): 0.176 µM
- inhibition at 2 µM (phosphorylated MEK1): 88.7%
- inhibition at 20 µM (phosphorylated MEK1): 102%
- IC50 (ERK pathway): 90.5 ± 1.83 µM
- melting point: 123 to 125 °C

SMILES: CCc1c(Cc2ccc(F)cc2)c(=O)oc2cc(OC(=O)c3ccccc3)ccc12 [Compound 67, 4-Ethyl-3-(4-fluorobenzyl)-2-oxo-2H-chromen-7-yl benzoate]
- binding affinity (in words) (phosphorylated MEK1): inactive
- inhibition at 2 µM (phosphorylated MEK1): 44.6%
- inhibition at 20 µM (phosphorylated MEK1): 21.3%
- IC50 (ERK pathway): 64.6 ± 1.74 µM
- melting point: 70 to 71 °C

SMILES: CC(=O)Oc1ccc2c(C)c(Cc3ccc(F)cc3)c(=O)oc2c1 [Compound 31, 3-(4-Fluorobenzyl)-4-methyl-2-oxo-2H-chromen-7-yl acetate]
- IC50 (phosphorylated MEK1; [4]): 0.248 µM
- inhibition at 2 µM (phosphorylated MEK1): 72.2%
- inhibition at 20 µM (phosphorylated MEK1): 78.2%
- inhibition of ERK pathway activation (in words) (ERK pathway): more efficiently than U0126
- IC50 (ERK pathway): 15.7 ± 1.18 µM

SMILES: Cc1c(Cc2ccc(F)cc2)c(=O)oc2cc(OC(=O)N(C)C)ccc12 [Compound 17, 3-(4-Fluorobenzyl)-4-methyl-2-oxo-2H-chromen-7-yl dimethylcarbamate]
- IC50 (phosphorylated MEK1): 0.408 µM
- inhibition at 2 µM (phosphorylated MEK1): 71.6%
- inhibition at 20 µM (phosphorylated MEK1): 82.1%
- inhibition of ERK pathway activation (in words) (ERK pathway): more efficiently than U0126
- IC50 (ERK pathway): 4.06 ± 3.26 µM
- TI (CC50/IC50) (EV71 [3]): 16.36
- EC50 (EV71 [3]): 5.25 µM
- melting point: 149 to 150 °C
